In article PMC10189451, “Palmitic acid‐ and cysteine‐functionalized nanoparticles overcome mucus and epithelial barrier for oral delivery of drug” (Bioengineering & Translational Medicine, 2023):

Key:
[1] = Cytotoxicity assay (CCK‐8) on HepG‐2; type: cell-based; details: human, HepG-2 cells; read-out: Cell viability of HepG‐2
Method: HT29‐MTX and HepG‐2 were cultured in RPMI medium and MEM, respectively, supplemented with 10% fetal bovine serum, 1% (v/v) penicillin, and streptomycin. HT29‐MTX or HepG‐2 were seeded (100 μL) into a 96‐well plate at a cell density of 1 × 10^4 cells/well. […] After co‐incubation for 24 h, the cytotoxicity was analyzed by CCK‐8 assay (Cell Counting Kit‐8, Beyotime).

[2] = Pharmacokinetic study after oral administration; type: in vivo, SD rats
Method: Nine male SD rats were randomly divided into three groups (n = 3). […] Moreover, 500 μL of blood was taken before administration, and 300 μL of blood was taken from the heart at 0.25, 0.5, 1, 2, 4, 6, 9, 12, and 24 h after administration. The plasma samples were centrifuged at 3000 r/min for 10 min. Subsequently, 100 μL of plasma was mixed with 10 μL methanol containing internal standard (rheum emodin, 20 μg/mL). After vortexing for 3 min, 250 μL ethyl acetate was added, and the mixture was centrifuged at 3000 r/min for 10 min. The extraction residue was reconstituted in 100 μL of mobile phase and determined by HPLC. The mobile phase was a mixture of acetonitrile: water (containing 2% acetic acid) (52:48, v/v), the flow rate was 1 mL/min, and the detection wavelength was 426 nm. Pharmacokinetic parameters were calculated using PK SOLVER for the noncompartmental model.

DSS‐induced colitis = test: Efficacy on DSS‐induced colitis mice; type: in vivo, BALB/c mice; details: daily oral 7 days, CUR 50 mg/kg
Method: Male BALB/c mice (6–8 weeks, 20–25 g) were randomly divided into five groups with eight mice in each group after 1 week of acclimation. Except for the normal control group, the remaining four groups were given 3% DSS instead of ordinary drinking water for 7 days, during which they were fed normally to establish the mice colitis model. […] The body weight of the mice was recorded every day, and DAI was measured to assess the severity of the colitis according to body weight loss, character of stool, and the degree of hematochezia (Table 3).
After treatment with different formulas, the mice were sacrificed after anesthesia, the colon length was measured, and the colon tissue was fixed with 10% formalin and stained with hematoxylin and eosin (H&E) for pathological examination. To count colonic goblet cells, fixed colonic tissues were also stained using Alcian blue. […]
In addition, a portion of collected colon tissue (50 mg) was homogenized with RIPA lysis buffer (Thermo Fisher, Shanghai, China) to extract total proteins. […] The protein content of supernatant was quantified using a bicinchoninic acid (BCA) protein assay kit (Thermo Fisher, Shanghai, China). The concentration of pro‐inflammatory cytokines such as TNF‐α and IL‐1β was measured by ELISA kit (Enzyme‐linked Biotechnology Co., Ltd., China).

HT29‐MTX = test: Cellular uptake of the NPs loaded with CUR (CLSM, HPLC); type: cell-based; details: CUR 5–20 μg/mL, 2 and 4 h, CLSM fluorescence / HPLC
Method: HT29‐MTX was seeded in the 12‐well plate with 2 × 10^5 cells/well and incubated overnight. […] After co‐incubation for prescribed time intervals (2 and 4 h), the cells were cleaned with PBS and lysed by 1% Triton X‐100 at 4°C. […] The cellular uptake efficiency was calculated using Formula (11). In addition, after fixation with 4% paraformaldehyde, the HT29‐MTX stained with Hoechst 33342 were observed by CLSM. (11) Cellular uptake%=Cellular intake ofCUR/Total amount ofCURadded×100.
HT29-MTX was seeded in the 12-well plate with 2×10^5 cells/well and incubated overnight. […] After co-incubation for prescribed time intervals (2 and 4 h), the cells were cleaned with PBS and lysed by 1% Triton X-100 at 4 ℃. […] In addition, the HT29-MTX stained with Hoechst 33342 were observed by CLSM.

[3] = In vivo absorption in ligated small intestinal loops (CLSM); details: SD rats, 2 h
Method: In vivo transportation of the FITC‐labeled PA‐N‐2‐HACC NPs and FITC‐labeled PA‐N‐2‐HACC‐Cys NPs through the epithelial mucosa was qualitatively analyzed using […] in vivo absorption study.[69] Male SD rats (6–8 weeks, 230–250 g) were anesthetized by chloral hydrate, and 2‐cm sections of small intestinal loops were ligated at both ends. Then, 100 μL of 1 mg/mL FITC‐labeled PA‐N‐2‐HACC NPs and PA‐N‐2‐HACC‐Cys NPs were administered into different intestinal loops of the same SD rats (n = 3). […] After 2 h, the rats were sacrificed, and the loops treated with the FITC‐labeled NPs were withdrawn and washed with PBS (pH = 7.4). After fixation in 4% paraformaldehyde for 4 h and dehydration in 30% sucrose overnight, the loops were embedded in optimal cutting temperature compound and sectioned into 10‐μm slices using a freezing microtome (Leica CM1860, Wetzlar, Germany). Cell nuclei were stained with Hoechst 33342 for 10 min and visualized using CLSM.
All the animal care and experimental protocols were in accordance with the “National Research Council's Guide for the Care and Use of Laboratory Animals”. Male SD rats (6-8 weeks, 230-250 g) were anesthetized by chloral hydrate, and 2 cm sections of small intestinal loops were ligated at both ends. […]

[4] = male, SD, rat, plasma, po, 50 mg/kg

COc1cc(/C=C/C(=O)CC(=O)/C=C/c2ccc(O)c(OC)c2)ccc1O [CUR, Curcumin]
viability at 24 h, 12.5 μg/mL [1]: 77.5% | CL ([2]; SD rats, oral, CUR dose 50 mg/kg, n = 3): 782.7 ± 18.7 mL/min/kg | Cmax [2, 4]: 41 ± 10 ng/mL | MRT [2, 4]: 4.71 ± 0.48 h | Tmax [2, 4]: 1 h | half-life [2, 4]: 3.27 ± 0.32 h | AUC ([2]; male, SD, rat, plasma, po, 50 mg/kg, read-out: AUC0‐∞): 252 ± 110 ng·h/mL | Clinical symptoms (body weight loss, colon length shortening, DAI increase) (DSS‐induced colitis): significantly improved | Colonic epithelial mucosa / goblet cells (Alcian blue staining) (DSS‐induced colitis): relieved the damage caused by DSS | Cellular uptake of CUR in HT29‐MTX (in words) (HT29‐MTX): weak fluorescence intensity | Fluorescence signal in intestinal tissue (in vivo absorption, in words) [3]: weak green fluorescence signal
